{"source": "paper PMC7252619", "about": "(PLoS ONE, 2020)", "key": {"DAPK1": {"biological_target": "T1, DAPK1 (Homo sapiens, UniProt P53355)", "T1 construct": "purchased ReactionBiology", "T1 sequence (P53355 whole entry)": "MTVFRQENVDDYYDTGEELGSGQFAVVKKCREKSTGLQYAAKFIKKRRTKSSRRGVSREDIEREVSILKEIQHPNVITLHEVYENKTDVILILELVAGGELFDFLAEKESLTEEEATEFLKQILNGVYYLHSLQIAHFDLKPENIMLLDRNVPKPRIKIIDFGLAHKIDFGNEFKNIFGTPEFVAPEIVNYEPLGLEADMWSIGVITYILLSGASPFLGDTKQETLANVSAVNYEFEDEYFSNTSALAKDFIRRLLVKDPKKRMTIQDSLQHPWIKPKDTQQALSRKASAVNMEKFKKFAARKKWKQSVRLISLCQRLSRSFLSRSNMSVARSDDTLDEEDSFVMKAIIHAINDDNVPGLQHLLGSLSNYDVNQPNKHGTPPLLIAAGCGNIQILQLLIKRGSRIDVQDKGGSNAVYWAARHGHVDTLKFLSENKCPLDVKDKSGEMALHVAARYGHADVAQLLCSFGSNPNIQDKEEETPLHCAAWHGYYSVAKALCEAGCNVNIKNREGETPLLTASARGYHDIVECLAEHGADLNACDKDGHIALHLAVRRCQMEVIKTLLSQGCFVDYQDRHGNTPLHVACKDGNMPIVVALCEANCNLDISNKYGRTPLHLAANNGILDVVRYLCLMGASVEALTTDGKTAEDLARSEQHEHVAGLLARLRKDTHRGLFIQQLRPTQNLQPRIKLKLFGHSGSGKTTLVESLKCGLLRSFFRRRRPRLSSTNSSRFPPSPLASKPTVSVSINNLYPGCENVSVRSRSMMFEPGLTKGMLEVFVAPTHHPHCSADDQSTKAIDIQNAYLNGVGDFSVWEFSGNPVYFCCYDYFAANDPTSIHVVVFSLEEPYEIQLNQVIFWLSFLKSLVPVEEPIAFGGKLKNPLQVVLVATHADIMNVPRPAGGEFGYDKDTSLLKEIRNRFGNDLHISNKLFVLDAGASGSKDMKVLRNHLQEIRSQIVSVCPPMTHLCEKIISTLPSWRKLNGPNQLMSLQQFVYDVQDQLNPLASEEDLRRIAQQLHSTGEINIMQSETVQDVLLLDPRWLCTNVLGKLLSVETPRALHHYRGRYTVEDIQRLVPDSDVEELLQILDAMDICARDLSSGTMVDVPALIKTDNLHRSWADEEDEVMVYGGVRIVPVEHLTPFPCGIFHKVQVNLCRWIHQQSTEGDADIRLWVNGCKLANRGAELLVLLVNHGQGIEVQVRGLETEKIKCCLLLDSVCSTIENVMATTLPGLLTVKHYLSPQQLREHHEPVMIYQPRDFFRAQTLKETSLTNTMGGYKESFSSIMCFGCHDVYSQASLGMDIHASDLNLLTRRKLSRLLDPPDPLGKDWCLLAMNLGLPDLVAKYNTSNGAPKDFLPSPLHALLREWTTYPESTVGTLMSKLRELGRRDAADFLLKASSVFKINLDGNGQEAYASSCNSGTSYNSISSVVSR", "test": "Kinase activity test (ReactionBiology), % enzyme activity relative to DMSO", "assay_type": "biochemical", "details": "DAPK1"}, "[1]": {"test": "WST-1 cytotoxicity assay on RPMI1788 cells (B-cell line)", "assay_type": "cell-based, human", "details": "human, RPMI1788 cells (B-cell line), mean of 4 independent measures, read-out: Cytotoxicity, WST-1 RPMI 1788 IC 50 (µM) Mean"}, "EPHB4": {"biological_target": "T2, EPHB4 (Homo sapiens, UniProt P54760)", "T2 construct": "purchased ReactionBiology", "T2 sequence (P54760 16-987)": "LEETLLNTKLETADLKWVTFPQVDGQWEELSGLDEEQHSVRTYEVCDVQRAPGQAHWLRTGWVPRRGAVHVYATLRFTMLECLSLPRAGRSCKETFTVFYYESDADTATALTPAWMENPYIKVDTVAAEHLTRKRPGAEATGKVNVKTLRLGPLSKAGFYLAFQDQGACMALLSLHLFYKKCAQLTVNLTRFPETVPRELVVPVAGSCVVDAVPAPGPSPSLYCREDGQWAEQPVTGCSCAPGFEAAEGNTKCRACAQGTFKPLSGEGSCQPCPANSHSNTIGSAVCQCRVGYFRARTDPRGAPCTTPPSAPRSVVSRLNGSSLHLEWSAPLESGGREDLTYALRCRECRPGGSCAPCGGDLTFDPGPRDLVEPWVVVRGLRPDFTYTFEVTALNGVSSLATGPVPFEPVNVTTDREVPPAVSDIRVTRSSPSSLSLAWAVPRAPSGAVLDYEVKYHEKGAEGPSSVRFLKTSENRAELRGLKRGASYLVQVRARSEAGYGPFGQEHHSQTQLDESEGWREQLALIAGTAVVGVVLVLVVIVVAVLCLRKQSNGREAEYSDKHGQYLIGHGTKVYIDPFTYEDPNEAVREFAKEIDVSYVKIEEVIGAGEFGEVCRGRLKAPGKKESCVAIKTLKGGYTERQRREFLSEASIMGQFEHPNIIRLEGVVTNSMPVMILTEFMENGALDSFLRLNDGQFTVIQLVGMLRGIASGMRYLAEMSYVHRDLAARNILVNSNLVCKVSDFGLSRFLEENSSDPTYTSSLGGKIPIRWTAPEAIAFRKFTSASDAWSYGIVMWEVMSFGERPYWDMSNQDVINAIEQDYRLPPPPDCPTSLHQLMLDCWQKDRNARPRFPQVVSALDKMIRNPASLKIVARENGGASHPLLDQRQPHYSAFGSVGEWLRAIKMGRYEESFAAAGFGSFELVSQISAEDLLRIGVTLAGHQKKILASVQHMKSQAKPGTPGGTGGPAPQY", "test": "Kinase activity test (ReactionBiology), % enzyme activity relative to DMSO", "assay_type": "biochemical", "details": "EPHB4"}, "[2]": {"test_system": "human PBMCs (responder cells) with RPMI1788 stimulator cells", "test": "Mixed Lymphocyte Reaction (MLR, T cell assay), 3H-thymidine incorporation", "assay_type": "cell-based", "details": "Homo sapiens, RPMI-1788; mean of 4 independent measures; read-out: T-cell efficacy, MLR IC 50 (µM) Mean", "method": "In order to test the efficacy and selectivity of the hit compounds on B-cells, 4 assays were performed: B-cell assay, Mixed Lymphocyte Reaction (MLR), WST-1 assay on RPMI1788 cells (B-cell line) and cytotoxicity WST-1 assay on Jurkat cells (T-cell line). Compounds were prepared as 10 mM stock solutions in dimethylsulfoxide (DMSO)and were tested at 50-10-1-0.1-0.01 and 0.001 μM in the 4 assays.\nBlood samples of healthy volunteers were collected at the Red Cross of Mechelen, Belgium. Each donor consents to the use of their blood for research purposes. […] The human B cell line RPMI1788 (American Type Culture Collection, USA) and the human T cell line Jurkat (European Collection of Cell Cultures, ECACC, England) were maintained in RPMI1640 culture medium (BioWhittaker®, Lonza, Verviers, Belgium) containing 10% foetal calf serum (FCS, HyClone® Thermo Scientific, United Kingdom) and 5 μg/mL gentamicin sulphate (BioWhittaker®, Lonza, Verviers, Belgium) at 37°C and 5% CO2.\nMLR assay (T cell assay): Freshly isolated human PBMCs (responder cells) were resuspended in RPMI1640 medium containing 10% FCS and 5nμg/mL gentamicin sulphate. RPMI1788 cells (stimulator cells) were inactivated by treatment with mitomycin C (Kyowa®, Takeda Belgium, Brussels, Belgium) for 20 min at 37°C, washed and finally suspended in culture medium. An amount of 100 μL of each cell suspension was mixed with 20 μL of diluted compound. The mixed cells were cultured at 37°C for 6 days in 5% CO2. DNA synthesis was assayed by the addition of 10 μCi (methyl-3H) thymidine (Perkin Elmer, Zaventem, Belgium) per well during the last 18 h in culture. Thereafter, the cells were harvested on glass filter paper and the counts per minute determined in a liquid scintillation counter (TopCount, Perkin Elmer, Zaventem, Belgium)."}, "VEGFR2": {"biological_target": "VEGFR2 (Homo sapiens, UniProt P35968)", "sequence (P35968 20-1356)": "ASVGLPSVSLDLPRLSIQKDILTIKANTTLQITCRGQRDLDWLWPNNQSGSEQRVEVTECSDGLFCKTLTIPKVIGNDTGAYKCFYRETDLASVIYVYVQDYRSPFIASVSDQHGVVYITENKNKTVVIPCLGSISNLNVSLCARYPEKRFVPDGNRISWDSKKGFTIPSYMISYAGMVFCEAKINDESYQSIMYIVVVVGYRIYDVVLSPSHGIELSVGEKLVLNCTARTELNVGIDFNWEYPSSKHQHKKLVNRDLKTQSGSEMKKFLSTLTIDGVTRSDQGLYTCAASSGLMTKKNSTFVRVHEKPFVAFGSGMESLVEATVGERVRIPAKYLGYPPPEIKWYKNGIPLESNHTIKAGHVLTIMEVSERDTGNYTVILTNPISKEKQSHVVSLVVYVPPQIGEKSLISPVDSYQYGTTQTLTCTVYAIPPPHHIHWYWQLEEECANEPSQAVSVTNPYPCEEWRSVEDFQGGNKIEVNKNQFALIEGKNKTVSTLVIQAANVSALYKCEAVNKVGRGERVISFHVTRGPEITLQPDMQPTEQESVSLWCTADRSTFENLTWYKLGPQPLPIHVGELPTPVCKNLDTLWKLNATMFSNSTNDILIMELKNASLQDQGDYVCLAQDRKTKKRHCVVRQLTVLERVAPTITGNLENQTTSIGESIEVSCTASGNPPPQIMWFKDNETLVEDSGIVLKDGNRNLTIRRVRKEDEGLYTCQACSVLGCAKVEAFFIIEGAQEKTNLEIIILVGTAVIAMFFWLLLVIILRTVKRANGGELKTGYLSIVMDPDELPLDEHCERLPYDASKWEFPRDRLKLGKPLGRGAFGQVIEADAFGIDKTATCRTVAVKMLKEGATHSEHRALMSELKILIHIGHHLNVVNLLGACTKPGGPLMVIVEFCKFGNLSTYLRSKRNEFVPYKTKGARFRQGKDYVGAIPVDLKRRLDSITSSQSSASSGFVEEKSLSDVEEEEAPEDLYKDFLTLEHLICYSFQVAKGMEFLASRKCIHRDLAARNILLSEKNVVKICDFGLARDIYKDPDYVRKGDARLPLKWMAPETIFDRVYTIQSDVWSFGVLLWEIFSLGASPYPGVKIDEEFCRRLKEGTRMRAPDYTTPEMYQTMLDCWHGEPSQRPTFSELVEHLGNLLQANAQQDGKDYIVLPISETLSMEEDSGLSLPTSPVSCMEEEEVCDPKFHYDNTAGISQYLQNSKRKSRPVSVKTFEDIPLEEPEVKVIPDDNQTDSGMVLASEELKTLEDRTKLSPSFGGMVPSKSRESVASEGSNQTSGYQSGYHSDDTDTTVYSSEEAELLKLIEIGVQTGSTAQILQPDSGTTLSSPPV", "test": "Kinase activity test (ReactionBiology), % enzyme activity relative to DMSO", "assay_type": "biochemical", "parameters": "purchased ReactionBiology", "details": "VEGFR2"}, "MST-4": {"biological_target": "T3, MST-4 (Homo sapiens, UniProt Q9P289)", "T3 construct": "purchased ReactionBiology", "T3 sequence (Q9P289 whole entry)": "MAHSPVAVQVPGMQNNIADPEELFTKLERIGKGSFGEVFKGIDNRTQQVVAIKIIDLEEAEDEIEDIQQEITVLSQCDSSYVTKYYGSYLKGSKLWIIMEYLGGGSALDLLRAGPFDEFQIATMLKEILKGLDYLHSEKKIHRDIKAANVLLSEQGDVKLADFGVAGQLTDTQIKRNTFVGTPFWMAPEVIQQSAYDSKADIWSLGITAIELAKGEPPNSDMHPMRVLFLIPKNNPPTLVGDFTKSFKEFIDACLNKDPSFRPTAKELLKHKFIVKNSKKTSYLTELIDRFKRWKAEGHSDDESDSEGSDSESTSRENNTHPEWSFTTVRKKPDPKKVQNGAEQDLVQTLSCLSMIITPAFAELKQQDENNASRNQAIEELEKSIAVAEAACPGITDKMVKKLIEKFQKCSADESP", "test": "Kinase activity test (ReactionBiology), % enzyme activity relative to DMSO", "assay_type": "biochemical", "details": "MST4"}, "CK1d": {"biological_target": "T4, CK1d (Homo sapiens, UniProt P48730)", "T4 construct": "purchased ReactionBiology", "T4 sequence (P48730 whole entry)": "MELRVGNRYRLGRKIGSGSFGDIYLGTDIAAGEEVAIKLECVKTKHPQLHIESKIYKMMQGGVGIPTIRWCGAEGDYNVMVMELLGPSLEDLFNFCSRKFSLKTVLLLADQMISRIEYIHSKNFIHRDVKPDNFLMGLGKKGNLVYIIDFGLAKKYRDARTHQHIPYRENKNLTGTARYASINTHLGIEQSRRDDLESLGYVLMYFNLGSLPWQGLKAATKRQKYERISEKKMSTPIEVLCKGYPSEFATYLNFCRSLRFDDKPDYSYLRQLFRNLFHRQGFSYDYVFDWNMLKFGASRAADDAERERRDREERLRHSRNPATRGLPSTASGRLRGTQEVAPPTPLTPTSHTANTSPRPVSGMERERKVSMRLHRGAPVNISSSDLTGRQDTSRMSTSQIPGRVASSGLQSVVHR", "test": "Kinase activity test (ReactionBiology), % enzyme activity relative to DMSO", "assay_type": "biochemical", "details": "CK1d"}, "human CD19+ B cells": {"test_system": "human CD19+ B cells", "test": "B-cell assay: IgG production of ODN2006-stimulated primary B cells (AlphaLISA)", "assay_type": "cell-based", "details": "Homo sapiens, B-cell, 168 h; IgG production, ODN2006 0.1 μM, 7 days; mean of 4 independent experiments; read-out: B-cell IC50"}, "[3]": {"test": "WST-1 cytotoxicity assay on Jurkat cells (T-cell line)", "assay_type": "cell-based, human", "details": "human, Jurkat cells (T-cell line), mean of 4 independent measures, read-out: Cytotoxicity, WST-1 Jurkat IC 50 (µM) Mean"}, "NEK2": {"biological_target": "T5, NEK2 (Homo sapiens, UniProt P51955)", "T5 construct": "purchased ReactionBiology", "T5 sequence (P51955 1-445)": "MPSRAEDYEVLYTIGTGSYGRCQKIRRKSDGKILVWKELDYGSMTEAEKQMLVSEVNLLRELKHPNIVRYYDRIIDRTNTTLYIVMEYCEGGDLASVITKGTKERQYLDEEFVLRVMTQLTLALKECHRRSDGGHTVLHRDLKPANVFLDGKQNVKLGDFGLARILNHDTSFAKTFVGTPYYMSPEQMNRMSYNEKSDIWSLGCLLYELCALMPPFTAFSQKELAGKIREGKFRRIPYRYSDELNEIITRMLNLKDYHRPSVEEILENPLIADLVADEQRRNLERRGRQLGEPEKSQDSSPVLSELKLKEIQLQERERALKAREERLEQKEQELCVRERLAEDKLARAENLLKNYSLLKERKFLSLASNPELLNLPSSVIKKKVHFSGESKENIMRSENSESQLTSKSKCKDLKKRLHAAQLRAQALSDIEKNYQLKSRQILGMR", "test": "Kinase activity test (ReactionBiology), % enzyme activity relative to DMSO", "assay_type": "biochemical", "details": "NEK2"}, "[4]": {"details": "Average, read-out: % Enzyme Activity (relative to DMSO controls), Average"}, "[5]": {"details": "replicate Data 1, read-out: % Enzyme Activity (relative to DMSO controls), Data 1"}, "[6]": {"details": "replicate Data 2, read-out: % Enzyme Activity (relative to DMSO controls), Data 2"}, "[7]": {"details": "1 uM, Average, read-out: % Enzyme Activity (relative to DMSO controls), Average"}, "[8]": {"details": "1 uM, replicate Data 1, read-out: % Enzyme Activity (relative to DMSO controls), Data 1"}, "[9]": {"details": "1 uM, replicate Data 2, read-out: % Enzyme Activity (relative to DMSO controls), Data 2"}, "[10]": {"details": "10 uM, Average, read-out: % Enzyme Activity (relative to DMSO controls), Average"}, "[11]": {"details": "10 uM, replicate Data 1, read-out: % Enzyme Activity (relative to DMSO controls), Data 1"}, "[12]": {"details": "10 uM, replicate Data 2, read-out: % Enzyme Activity (relative to DMSO controls), Data 2"}, "[13]": {"details": "compound 1μM, relative to DMSO controls, read-out: % Enzyme activity at 1μM"}, "[14]": {"details": "compound 10μM, relative to DMSO controls, read-out: % Enzyme activity at 10μM"}}, "note": "Like-named read-outs stand apart in the source and are kept apart here."}
{"compound": "Nc1ncnc2c1ncn2[C@@H]1O[C@H](CO)[C@@H](O)[C@H]1O", "note": "[Adenosine, reference compound]", "values": [{"measurement": "remaining activity at 1 µM", "setting": "DAPK1; [4]", "value": 99.3, "unit": "%"}, {"measurement": "remaining activity at 1 µM", "setting": "DAPK1; [5]", "value": 103, "unit": "%"}, {"measurement": "remaining activity at 1 µM", "setting": "DAPK1; [6]", "value": 95.9, "unit": "%"}, {"measurement": "remaining activity at 10 µM", "setting": "DAPK1; [4]", "value": 81.1, "unit": "%"}, {"measurement": "remaining activity at 10 µM", "setting": "DAPK1; [5]", "value": 80.8, "unit": "%"}, {"measurement": "remaining activity at 10 µM", "setting": "DAPK1; [6]", "value": 81.4, "unit": "%"}, {"measurement": "IC50 at 48 h", "setting": "[1]", "value": "> 50", "unit": "µM"}, {"measurement": "remaining activity at 1 µM", "setting": "EPHB4; [4]", "value": 101, "unit": "%"}, {"measurement": "remaining activity at 1 µM", "setting": "EPHB4; [5]", "value": 100, "unit": "%"}, {"measurement": "remaining activity at 1 µM", "setting": "EPHB4; [6]", "value": 102, "unit": "%"}, {"measurement": "remaining activity at 10 µM", "setting": "EPHB4; [4]", "value": 85.4, "unit": "%"}, {"measurement": "remaining activity at 10 µM", "setting": "EPHB4; [5]", "value": 84.1, "unit": "%"}, {"measurement": "remaining activity at 10 µM", "setting": "EPHB4; [6]", "value": 86.8, "unit": "%"}, {"measurement": "IC50", "setting": "[2]", "value": "> 50", "unit": "µM"}, {"measurement": "remaining activity at 1 µM", "setting": "VEGFR2; [4]", "value": 111, "unit": "%"}, {"measurement": "remaining activity at 1 µM", "setting": "VEGFR2; [5]", "value": 111, "unit": "%"}, {"measurement": "remaining activity at 1 µM", "setting": "VEGFR2; [6]", "value": 111, "unit": "%"}, {"measurement": "remaining activity at 10 µM", "setting": "VEGFR2; [4]", "value": 98.3, "unit": "%"}, {"measurement": "remaining activity at 10 µM", "setting": "VEGFR2; [5]", "value": 98.4, "unit": "%"}, {"measurement": "remaining activity at 10 µM", "setting": "VEGFR2; [6]", "value": 98.2, "unit": "%"}, {"measurement": "remaining activity at 1 µM", "setting": "MST-4; [4]", "value": 91.7, "unit": "%"}, {"measurement": "remaining activity at 1 µM", "setting": "MST-4; [5]", "value": 92.1, "unit": "%"}, {"measurement": "remaining activity at 1 µM", "setting": "MST-4; [6]", "value": 91.2, "unit": "%"}, {"measurement": "remaining activity at 10 µM", "setting": "MST-4; [4]", "value": 78.5, "unit": "%"}, {"measurement": "remaining activity at 10 µM", "setting": "MST-4; [5]", "value": 69.9, "unit": "%"}, {"measurement": "remaining activity at 10 µM", "setting": "MST-4; [6]", "value": 87.1, "unit": "%"}, {"measurement": "remaining activity at 1 µM", "setting": "CK1d; [7]", "value": 87.7, "unit": "%"}, {"measurement": "remaining activity at 1 µM", "setting": "CK1d; [8]", "value": 86.5, "unit": "%"}, {"measurement": "remaining activity at 1 µM", "setting": "CK1d; [9]", "value": 88.9, "unit": "%"}, {"measurement": "remaining activity at 10 µM", "setting": "CK1d; [10]", "value": 50.2, "unit": "%"}, {"measurement": "remaining activity at 10 µM", "setting": "CK1d; [11]", "value": 51.1, "unit": "%"}, {"measurement": "remaining activity at 10 µM", "setting": "CK1d; [12]", "value": 49.4, "unit": "%"}, {"measurement": "remaining activity at 1 µM", "setting": "CK1d; [13]", "value": 87.7, "unit": "%"}, {"measurement": "remaining activity at 10 µM", "setting": "CK1d; [14]", "value": 50.2, "unit": "%"}, {"measurement": "IC50", "setting": "human CD19+ B cells", "value": "> 50", "unit": "µM"}, {"measurement": "IC50 at 48 h", "setting": "[3]", "value": "> 50", "unit": "µM"}, {"measurement": "remaining activity at 1 µM", "setting": "NEK2; [7]", "value": 79.9, "unit": "%"}, {"measurement": "remaining activity at 1 µM", "setting": "NEK2; [8]", "value": 73.6, "unit": "%"}, {"measurement": "remaining activity at 1 µM", "setting": "NEK2; [9]", "value": 86.1, "unit": "%"}, {"measurement": "remaining activity at 10 µM", "setting": "NEK2; [10]", "value": 71.7, "unit": "%"}, {"measurement": "remaining activity at 10 µM", "setting": "NEK2; [11]", "value": 77.2, "unit": "%"}, {"measurement": "remaining activity at 10 µM", "setting": "NEK2; [12]", "value": 66.2, "unit": "%"}, {"measurement": "remaining activity at 1 µM", "setting": "NEK2; [13]", "value": 96.1, "unit": "%"}, {"measurement": "remaining activity at 10 µM", "setting": "NEK2; [14]", "value": 59, "unit": "%"}]}
